How the values were obtained:
Complex I = details: rat model; Amarsanaa K et al. 2021; cited from earlier work
[1] = test system: mitochondiral complex I, II and IV; details: Kumar M et al. 2020; worded as 'proposed'; cited from earlier work
primary skin fibroblasts = details: uncoupler as positive control (50 μM per method), 30 minutes
Method: Primary skin fibroblasts (10,000 cells per well) were seeded into Cell Carrier Ultra 96-well plates. The next day, fibroblast medium was removed and replaced by FBS-deprived DMEM containing 100 nM Tetramethylrhodamine, Ethyl Ester, Perchlorate (TMRE), a fluorescent dye that specifically accumulates in active, polarized mitochondria, or vehicle only (DMSO). The mitochondrial OXPHOS (OXPHOS-mito) uncoupler carbonyl cyanide m-chlorophenyl hydrazone (CCCP) was used—at the concentration of 50 μM—as a positive control of TMRE staining. Nuclei were stained with 1 μg/ml Hoechst 33342. Cells were incubated in the dark at 37° C. for 30 minutes before proceeding with high-throughput automated confocal microscopy analysis. Z-stack images were acquired at 20× magnification using the CellVoyager CV8000 High-Content Screening System.
An in-house Matlab image processing pipeline was used to quantify TMRE signal. The mitochondria channel was sum-projected on the x-y plane and preprocessed using a DoG filter of 33 pixel side-length, and sigmas set to 1 and 1.5 pixels, prior to thresholding (>10). Connected components with less than 6 pixels were removed from mitochondrial analysis. Total mitochondrial TMRE fluorescence intensity per field was normalized to nuclear area. […] Nine fields per well and at least two wells per condition were assessed for each of the three independent biological replicates.

complex II = target: T1, complex II (Rattus norvegicus, UniProt P21913+Q641Z9+Q6PCT8+Q920L2); details: rat PD model; Jiang X et al. 2016; cited from earlier work
T1 construct: host or cells: rat PD model
T1 sequence (Q920L2 35-656): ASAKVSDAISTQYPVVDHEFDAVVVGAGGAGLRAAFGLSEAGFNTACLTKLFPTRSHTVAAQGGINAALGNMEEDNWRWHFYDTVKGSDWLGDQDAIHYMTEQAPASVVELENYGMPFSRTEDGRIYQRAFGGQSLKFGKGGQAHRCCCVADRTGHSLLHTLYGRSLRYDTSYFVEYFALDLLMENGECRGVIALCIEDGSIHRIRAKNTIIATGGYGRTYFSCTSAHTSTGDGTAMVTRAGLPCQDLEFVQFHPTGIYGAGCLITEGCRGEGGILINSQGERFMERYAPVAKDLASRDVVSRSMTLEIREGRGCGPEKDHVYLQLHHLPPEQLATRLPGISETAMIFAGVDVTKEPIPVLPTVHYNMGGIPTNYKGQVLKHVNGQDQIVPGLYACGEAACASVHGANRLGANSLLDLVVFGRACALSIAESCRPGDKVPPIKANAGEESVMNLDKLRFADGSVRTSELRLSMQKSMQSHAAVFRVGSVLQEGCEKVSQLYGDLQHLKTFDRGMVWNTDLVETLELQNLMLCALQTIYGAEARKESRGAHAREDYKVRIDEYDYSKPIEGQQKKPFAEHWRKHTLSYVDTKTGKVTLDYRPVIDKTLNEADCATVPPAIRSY
T1 sequence (P21913 31-282): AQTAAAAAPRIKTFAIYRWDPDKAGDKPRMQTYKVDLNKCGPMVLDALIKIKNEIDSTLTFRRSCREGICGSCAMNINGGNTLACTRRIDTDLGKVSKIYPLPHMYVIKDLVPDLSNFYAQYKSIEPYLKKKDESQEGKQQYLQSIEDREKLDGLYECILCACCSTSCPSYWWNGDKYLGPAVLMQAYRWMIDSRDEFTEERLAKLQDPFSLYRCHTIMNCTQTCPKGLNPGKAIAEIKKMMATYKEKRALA
T1 sequence (Q641Z9 1-169): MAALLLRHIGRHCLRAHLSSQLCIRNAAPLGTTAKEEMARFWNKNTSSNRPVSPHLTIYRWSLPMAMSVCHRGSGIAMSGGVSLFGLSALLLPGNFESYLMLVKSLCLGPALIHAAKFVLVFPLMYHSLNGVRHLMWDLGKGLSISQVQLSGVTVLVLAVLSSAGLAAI
T1 sequence (Q6PCT8 57-159): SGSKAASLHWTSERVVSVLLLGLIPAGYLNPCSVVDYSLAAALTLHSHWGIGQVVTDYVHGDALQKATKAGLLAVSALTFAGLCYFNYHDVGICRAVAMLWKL

## COc1ccc(-c2cc(=O)c3c(OC)c(OC)c(OC)c(OC)c3o2)cc1OC [Nobiletin, 5,6,7,8,3′,4′-hexamethoxyflavone]
Complex I
  activity of complex I: restore activity of complex I

## [Na+].[SH-] [NaHS]
[1]
  complex I, II and IV mediated oxygen consumption rate: increasing mitochondiral complex I, II and IV mediated oxygen consumption rate

## N#CC(C#N)=NNc1ccc(OC(F)(F)F)cc1 [FCCP, carbonyl cyanide p-trifluoromethoxyphenyl hydrazone]
Primary skin fibroblasts
  TMRE fluorescence (mitochondrial membrane potential, Δψm): robust reduction of TMRE fluorescence

## COc1ccc(Cn2cc(-c3cc(C(F)(F)F)nc(S(C)(=O)=O)n3)ccc2=O)cc1OC [Compound A, 1-(3,4-dimethoxybenzyl)-5-(2-(methylsulfonyl)-6-(trifluoromethyl)pyrimidin-4-yl) pyridin-2 (1H)]
Complex II
  dopaminergic neurons' death: preventing dopaminergic neurons' death
